# From patent publication US20170334899A1, “AMINO-SUBSTITUTED ISOTHIAZOLES” (Bayer Pharma Aktiengesellschaft, priority 2014, published 2017)
# How the values were obtained:
# [1] = biological target: T1, CDK2/CycE (Homo sapiens, UniProt P24941); assay: CDK2/CycE kinase assay (TR-FRET); format: biochemical; details: avg, read-out: CDK2 avg (IC50 [mol/l])
# T1 construct: GST; purchased ProQinase GmbH (Freiburg, Germany); host or cells: insect cells (Sf9)
# In short: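 Read-out is a TR-FRET 665/620 nm emission ratio from EDTA-stopped reactions detected with anti-pRB(pSer807/pSer811), Eu-labelled anti-mouse IgG and streptavidin-XL665, scaled between no-enzyme and uninhibited wells. Reaction: Sf9-expressed GST-CDK2/GST-CycE, 15 min compound preincubation, 10 μM ATP, 0.75 μM biotin-peptide, 25 min, 22° C., pH 8.0 Tris buffer.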
# [2] = tested on: human cervical tumor cell line HeLa (ATCC CCL-2); assay: SAC-Formation - Paclitaxel-Induced Assay; format: cell-based; details: Homo sapiens, HeLa, 24 h, HeLa cells, paclitaxel 0.05 μM, test range 0.005 μM-20 μM, read-out: IC50 [mol/l] SAC-Formation - Paclitaxel-Induced Assay
# In short: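 Read-out is high-content imaging of anti-phospho-H3 Ser10 (mitosis) and Hoechst 33342 (DNA, cell number), with decreased mitotic fraction marking checkpoint breakthrough. Compounds (0.005–20 μM) and 0.05 μM paclitaxel co-added to overnight-plated HeLa for 24 h at 37° C; four-parameter Hill fit.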
SMILES,IC50 [1],IC50 [2]
"Cc1nsc(Nc2cnc(C(F)(F)F)cn2)c1C(=O)Nc1ccc(C2CCN(CC(F)F)CC2)nc1 [Example 357, N-{6-[1-(2,2-difluoroethyl)piperidin-4 yl]pyridin-3-yl}-3-methyl-5-{[5-(trifluoromethyl)pyrazin-2-yl]amino}-1,2-thiazole-4-carboxamide]",> 20000 nM,99 nM
"Cc1nsc(Nc2cnc(C(F)(F)F)cn2)c1C(=O)Nc1ccc(OCCN(C)CC(F)F)nc1 [Example 349, N-(6-{2-[(2,2-difluoroethyl)(methyl)amino]ethoxy}pyridin-3-yl)-3-methyl-5-{[5-(trifluoromethyl)pyrazin-2-yl]amino}-1,2-thiazole-4-carboxamide]",≥ 20000 nM,50 nM
"Cc1nsc(Nc2cnc3ccccc3n2)c1C(=O)Nc1ccc(OC2CCCNC2)nc1 (stereo not drawn) [Example 32, 3-Methyl-N-[6-(piperidin-3-yloxy)pyridin-3-yl]-5-(quinoxalin-2-ylamino)-1,2-thiazole-4-carboxannide]",≥ 20000 nM,11000 nM
"Cc1nsc(Nc2cnc(C(F)(F)F)cn2)c1C(=O)Nc1ccc(OC2CCCN(CC(F)F)C2)nc1 (stereo not drawn) [Example 330, N-(6-{[1-(2,2-difluoroethyl)piperidin-3-yl]oxy}pyridin-3-yl)-3-methyl-5-{[5-(trifluoromethyl)pyrazin-2-yl]amino}-1,2-thiazole-4-carboxamide]",≥ 20000 nM,25 nM
"Cc1nsc(Nc2cnc(C(F)(F)F)cn2)c1C(=O)Nc1ccc(N2CCN(CC(F)F)CC2)nc1 [Example 359, N-{6-[4-(2,2-difluoroethyl)piperazin-1-yl]pyridin-3-yl}-3-methyl-5-{[5-(trifluoromethyl)pyrazin-2-yl]amino}-1,2-thiazole-4-carboxamide]",> 20000 nM,110 nM
"Cc1nsc(Nc2ccc(C#N)cn2)c1C(=O)Nc1ccc(OC2CCN(CCF)CC2)nc1 [Example 29, 5-[(5-Cyanopyridin-2-yl)amino]-N-(6-{[1-(2-fluoroethyl)piperidin-4-yl]oxy}pyridin-3-yl)-3-methyl-1,2-thiazole-4-carboxamide]",≥ 20000 nM,20000 nM
"Cc1nsc(Nc2cnc(C(F)(F)F)cn2)c1C(=O)Nc1ccc(F)c(OCC2CCCN(CCC(F)(F)F)C2)c1 (stereo not drawn) [Example 338, N-(4-fluoro-3-{[1-(3,3,3-trifluoropropyl)piperidin-3-yl]methoxy}phenyl)-3-methyl-5-{[5-(trifluoromethyl)pyrazin-2-yl]amino}-1,2-thiazole-4-carboxamide]",≥ 20000 nM,79 nM
"Cc1nsc(Nc2cc(C#N)ccn2)c1C(=O)Nc1ccc(OC2CCCN(C(=O)OC(C)(C)C)C2)nc1 (stereo not drawn) [Example 34, tert-Butyl 3({5-[({5-[(4-cyanopyridin-2-yl)amino]-3-methyl-1,2-thiazol-4-yl}-carbonyl)amino]pyridin-2-yl}oxy)piperidine-1-carboxylate]",≥ 20000 nM,990 nM
"Cc1nsc(Nc2cnc3ccccc3n2)c1C(=O)Nc1ccc(OC2CCCN(C(=O)OC(C)(C)C)C2)nc1 (stereo not drawn) [Example 31, tert-Butyl 3-{[5-({[3-methyl-5-(quinoxalin-2-ylamino)-1,2-thiazol-4-yl]carbonyl}-amino)pyridin-2-yl]oxy}piperidine-1-carboxylate]",≥ 20000 nM,610 nM
"Cc1nsc(Nc2cnc3ccccc3n2)c1C(=O)Nc1ccc(OC2CCCN(CC(F)F)C2)nc1 (stereo not drawn) [Example 33, N-(6-{[1-(2,2-Difluoroethyl)piperidin-3-yl]oxy}pyridin-3-yl)-3-methyl-5-(quinoxalin-2-ylamino)-1,2-thiazole-4-carboxamide]",≥ 20000 nM,74 nM
"Cc1nsc(Nc2cnc(C(F)(F)F)cn2)c1C(=O)Nc1ccc(F)c(OC[C@@H]2CCCN(CC(F)F)C2)c1 [Example 341, N-(3-{[(3R)-1-(2,2-difluoroethyl)piperidin-3-yl]methoxy}-4-fluorophenyl)-3-methyl-5-{[5-(trifluoromethyl)pyrazin-2-yl]amino}-1,2-thiazole-4-carboxamide]",> 20000 nM,37 nM
"Cc1nsc(Nc2cnc(C(F)(F)F)cn2)c1C(=O)Nc1ccc(OCCNCCC(F)(F)F)nc1 [Example 323, 3-methyl-5-{[5-(trifluoromethyl)pyrazin-2-yl]amino}-N-(6-{2-[(3,3,3-trifluoropropyl)amino]ethoxy}pyridin-3-yl)-1,2-thiazole-4-carboxamide]",≥ 20000 nM,800 nM
"Cc1nsc(Nc2cnc(C(F)(F)F)cn2)c1C(=O)Nc1ccc(OCC2CCCN(CCF)C2)nc1 (stereo not drawn) [Example 325, N-(6-{[1-(2-fluoroethyl)piperidin-3-yl]methoxy}pyridin-3-yl)-3-methyl-5-{[5-(trifluoromethyl)pyrazin-2-yl]amino}-1,2-thiazole-4-carboxamide]",≥ 20000 nM,53 nM
"Cc1nsc(Nc2cnc(C(F)(F)F)cn2)c1C(=O)Nc1ccc(F)c(OC[C@@H]2CCN(CCC(F)(F)F)C2)c1 [Example 340, N-(4-fluoro-3-{[(3R)-1-(3,3,3-trifluoropropyl)pyrrolidin-3-yl]methoxy}phenyl)-3-methyl-5-{[5-(trifluoromethyl)pyrazin-2-yl]amino}-1,2-thiazole-4-carboxamide]",> 20000 nM,35 nM
"Cc1nsc(Nc2cnc(C(F)(F)F)cn2)c1C(=O)Nc1ccc(OC2CCN(C(CF)CF)CC2)nc1 [Example 324, N-(6-{[1-(1,3-difluoropropan-2-yl)piperidin-4-yl]oxy}pyridin-3-yl)-3-methyl-5-{[5-(trifluoromethyl)pyrazin-2-yl]amino}-1,2-thiazole-4-carboxamide]",≥ 20000 nM,870 nM
"Cc1nsc(Nc2cnc(C(F)(F)F)cn2)c1C(=O)Nc1ccc(OCC2CCCN(CC(F)(F)F)C2)nc1 (stereo not drawn) [Example 326, 3-methyl-N-(6-{[1-(2,2,2-trifluoroethyl)piperidin-3-yl]methoxy}pyridin-3-yl)-5-{[5-(trifluoromethyl)pyrazin-2-yl]amino}-1,2-thiazole-4-carboxamide]",≥ 20000 nM,2300 nM

# More lines, now with the values ahead:
IC50 [1],IC50 [2],SMILES
> 20000 nM,51 nM,"CCCN1CC[C@@H](Oc2ccc(NC(=O)c3c(C)nsc3Nc3cnc(C(F)(F)F)cn3)cn2)[C@H](F)C1 [Example 371, N-(6-{[(3R,4R)-3-fluoro-1-propylpiperidin-4-yl]oxy}pyridin-3-yl)-3-methyl-5-{[5-(trifluoromethyl)pyrazin-2-yl]amino}-1,2-thiazole-4-carboxamide]"
> 20000 nM,31 nM,"CCCN1CC[C@H](Oc2ccc(NC(=O)c3c(C)nsc3Nc3cnc(C(F)(F)F)cn3)cn2)[C@@H](F)C1 [Example 370, N-(6-{[(3S,4S)-3-fluoro-1-propylpiperidin-4-yl]oxy}pyridin-3-yl)-3-methyl-5-{[5-(trifluoromethyl)pyrazin-2-yl]amino}-1,2-thiazole-4-carboxamide]"
> 20000 nM,64 nM,"Cc1nsc(Nc2cnc(C(F)(F)F)cn2)c1C(=O)Nc1ccc(O[C@@H]2CCN(CCC(F)(F)F)C[C@H]2F)nc1 [Example 368, N-(6-{[(3R,4R)-3-fluoro-1-(3,3,3-trifluoropropyl)piperidin-4-yl]oxy}pyridin-3-yl)-3-methyl-5-{[5-(trifluoromethyl)pyrazin-2-yl]amino}-1,2-thiazole-4-carboxamide]"
> 20000 nM,56 nM,"Cc1nsc(Nc2cnc(C(F)(F)F)cn2)c1C(=O)Nc1ccc(F)c(OC[C@H]2CCN(CC(F)(F)F)C2)c1 [Example 398, N-(4-fluoro-3-{[(3S)-1-(2,2,2-trifluoroethyl)pyrrolidin-3-yl]methoxy}phenyl)-3-methyl-5-{[5-(trifluoromethyl)pyrazin-2-yl]amino}-1,2-thiazole-4-carboxamide]"
> 20000 nM,57 nM,"Cc1nsc(Nc2cnc(C(F)(F)F)cn2)c1C(=O)Nc1ccc(O[C@@H]2CCCN(CC(F)(F)F)C2)nc1 [Example 386, 3-methyl-N-(6-{[(3R)-1-(2,2,2-trifluoroethyl)piperidin-3-yl]oxy}pyridin-3-yl)-5-{[5-(trifluoromethyl)pyrazin-2-yl]amino}-1,2-thiazole-4-carboxamide]"
> 20000 nM,32 nM,"Cc1nsc(Nc2cnc(C(F)(F)F)cn2)c1C(=O)Nc1ccc(O[C@H]2CCN(CCC(F)(F)F)C2)nc1 [Example 384, 3-methyl-5-{[5-(trifluoromethyl)pyrazin-2-yl]amino}-N-(6-{[(3S)-1-(3,3,3-trifluoropropyl)pyrrolidin-3-yl]oxy}pyridin-3-yl)-1,2-thiazole-4-carboxamide]"
> 20000 nM,47 nM,"Cc1nsc(Nc2cnc(C(F)(F)F)cn2)c1C(=O)Nc1ccc(O[C@H]2CCN(CC(F)(F)F)C[C@@H]2F)nc1 [Example 363, N-(6-{[(3S,4S)-3-fluoro-1-(2,2,2-trifluoroethyl)piperidin-4-yl]oxy}pyridin-3-yl)-3-methyl-5-{[5-(trifluoromethyl)pyrazin-2-yl]amino}-1,2-thiazole-4-carboxamide]"
> 20000 nM,27 nM,"Cc1nsc(Nc2cnc(C(F)(F)F)cn2)c1C(=O)Nc1ccc(O[C@H]2CCN(CC(F)(F)F)C2)nc1 [Example 383, 3-methyl-N-(6-{[(3S)-1-(2,2,2-trifluoroethyl)pyrrolidin-3-yl]oxy}pyridin-3-yl)-5-{[5-(trifluoromethyl)pyrazin-2-yl]amino}-1,2-thiazole-4-carboxamide]"
